Experiments:
[1] = system: A2780R Cisplatin-resistant ovarian carcinoma cells; test: In vitro cytotoxicity (MTT assay), A2780R; assay type: cell-based, human; conditions: ± standard deviation, triplicate
Experimental: (§1) The testing was performed on the ovarian carcinoma (A2780), Cisplatin-resistant ovarian carcinoma (A2780R), prostate adenocarcinoma (PC-3), prostate carcinoma (22Rv1), and leukemia monocytic (THP-1) and intestinal colon adenocarcinoma (LS180) human cell lines that were obtained from the ATCC collection of cell lines and cultivated according to the producer’s instructions. The reference normal cell line of human fetal fibroblasts (MRC-5) was obtained from the same commercial source and maintained according to the producer’s instructions. The half-maximal inhibitory concentrations (IC50) were calculated from dose–response curves by means of the GraphPad Prism 6 software (GraphPad Software, San Diego, CA, USA).

A2780 cells = test: Time-dependent cellular uptake of gold (ICP-MS); assay type: in vitro ADME, human
Experimental: Figure 3 The intracellular gold concentration levels caused by the incubation of [Au(kin)(PPh3)] (1), [Au(PPh3)Cl], and Auranofin with A2780 cells after 2 h, 6 h, 12 h, 24 h, 48 h, and 72 h. The results were obtained by ICP-MS analyses of three parallel samples and are shown as mean values with error bars corresponding to the standard deviation values of the gold concentration expressed in ng of gold per 10^6 cells. TEXT PRINTED IN THE PICTURE: [Au(kin)PPh3] (1): Intracellular Au content [ng/10^6 cells]: 121.3; Intracellular Au content [ng/10^6 cells]: 97.1; Intracellular Au content [ng/10^6 cells]: 88.8; Intracellular Au content [ng/10^6 cells]: 89.4; Intracellular Au content [ng/10^6 cells]: 287.5; Intracellular Au content [ng/10^6 cells]: 352.9 | Auranofin: Intracellular Au content [ng/10^6 cells]: 182.5; Intracellular Au content [ng/10^6 cells]: 231.1; Intracellular Au content [ng/10^6 cells]: 361.3; Intracellular Au content [ng/10^6 cells]: 333.9; Intracellular Au content [ng/10^6 cells]: 555.3; Intracellular Au content [ng/10^6 cells]: 320.2 | [Au(PPh3)Cl]: Intracellular Au content [ng/10^6 cells]: 84.6; Intracellular Au content [ng/10^6 cells]: 106.1; Intracellular Au content [ng/10^6 cells]: 80.7; Intracellular Au content [ng/10^6 cells]: 97.6; Intracellular Au content [ng/10^6 cells]: 304.2; Intracellular Au content [ng/10^6 cells]: 415.8 DOUBTS OF THE COPYIST ABOUT THIS PICTURE: Point labels are black, not coloured by series. Where the [Au(kin)PPh3] (1) and [Au(PPh3)Cl] curves run close together, I assigned the labels by their position above or below the points: 97.1/106.1, 88.8/80.7, 89.4/97.6 and 287.5/304.2. These assignments are not fully certain. / No incubation time is printed beside any point label, only on the axis, so no time condition is given with the values.

[2] = system: human cancer cell lines (A2780, A2780R, PC-3, 22Rv1, and THP-1); test: In vitro cytotoxicity, summary statements over the panel of cell lines; assay type: cell-based; conditions: IC50 for normal cell line/IC50 for cancerous cell line
Experimental: as §1

PPARγ = test: Immunocytochemical analysis of PPARγ expression and localisation; assay type: cell-based, human; conditions: 100 nM, 1 h pre-treatment, LPS-stimulated THP1-Blue NF-κB macrophages
Experimental: THP1-Blue™ NF-κB cells were seeded onto a µ-Slide 8 Well (Ibidi; Gräfelfing, Germany) and differentiated into macrophages by […] (PMA) at the final concentration of 50 ng/mL, as was described previously.
Differentiated macrophages were washed by PBS and covered by fresh serum-free medium for 2 h. […] One hour later, the cells were challenged by LPS for 24 h. Then, the cells were washed by PBS and fixed by 4% paraformaldehyde dissolved in PBS for 10 min. Cell permeabilization and blocking of free binding sites were performed by 0.1% (v/v) Triton X100 and 5% (w/v) bovine serum albumin (BSA) dissolved in PBS for 1 h at room temperature. After that, cells were washed by PBS with 0.1% (v/v) Tween 20 and covered by fresh PBS with 5% BSA and 0.1% Tween 20 containing Alexa Fluor® 546-labelled anti-PPARγ antibody diluted 1:100 (catalogue number sc-7273; Santa Cruz Biotechnology; Dallas, TX, USA) for a further 24 h. Then, cells were washed by PBS with 0.1% Tween 20 and incubated with Hoechst stain diluted 1:2000 for 10 min. The remaining stain was washed out by PBS and covered by fresh PBS for further microscope analysis. The confocal microscope Leica TCS SP8 MP (Leica Microsystems, Mannheim, Germany) was used for obtaining the images for the immunocytochemical analysis of PPARγ expression and localization.

SMILES | IC50 [1] [µM] | Excess of intracellular gold level over [Au(kin)(PPh3)] and [Au(PPh3)Cl] (A2780 cells; A2780 cells, after 12 h of incubation) | selectivity index (SI) [2] | Effect on the amount of PPARγ (PPARγ) | Intracellular Au content, 2 h (A2780 cells) [ng/10^6 cells] | Intracellular Au content, 6 h (A2780 cells) [ng/10^6 cells] | Intracellular Au content, 12 h (A2780 cells) [ng/10^6 cells] | Intracellular Au content, 24 h (A2780 cells) [ng/10^6 cells] | Intracellular Au content, 48 h (A2780 cells) [ng/10^6 cells] | Intracellular Au content, 72 h (A2780 cells) [ng/10^6 cells]
CC[PH](CC)(CC)[Au][S][C@@H]1O[C@H](COC(C)=O)[C@@H](OC(C)=O)[C@H](OC(C)=O)[C@H]1OC(C)=O [Auranofin, [3,4,5-triacetyloxy-6-(acetyloxymethyl)-oxane-2-thiolate-(triethylphosphine)gold(I)]] | 3.4 ± 0.6 | up to 4 times | around 1 | – | – | – | – | – | – | –
[Cl][Au].c1ccc(P(c2ccccc2)c2ccccc2)cc1 [[Au(PPh3)Cl]] | 5.2 ± 0.2 | – | – | did not show this effect | 84.6 | 106.1 | 80.7 | 97.6 | 304.2 | 415.8

— paper PMC9916778 (International Journal of Molecular Sciences, 2023)
